Consider 34 compounds from US6352988B2, “Indane or dihydroindole derivatives” (H. Lundbeck A/S, priority 1996, dated 2002).

Structures can show the parent of a compound that is named as a salt.

Data set [1] concerns the target T1, dopamine D4 receptors in cloned human dopamine receptor subtype 4.2 membranes (Homo sapiens, UniProt P21917, DEL271-302).
T1 sequence (P21917 with tags, fused parts or gaps DEL271-302): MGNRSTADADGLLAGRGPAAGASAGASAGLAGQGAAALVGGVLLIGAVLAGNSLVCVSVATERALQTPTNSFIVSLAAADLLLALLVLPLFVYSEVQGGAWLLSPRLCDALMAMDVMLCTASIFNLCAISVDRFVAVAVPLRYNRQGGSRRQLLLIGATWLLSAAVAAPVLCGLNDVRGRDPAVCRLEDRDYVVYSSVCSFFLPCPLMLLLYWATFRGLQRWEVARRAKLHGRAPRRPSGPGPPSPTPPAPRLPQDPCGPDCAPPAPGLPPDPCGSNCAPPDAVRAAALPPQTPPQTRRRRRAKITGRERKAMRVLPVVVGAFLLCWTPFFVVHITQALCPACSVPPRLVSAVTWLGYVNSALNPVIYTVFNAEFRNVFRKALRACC
The data set can be described thus: 3H-YM-09151-2 binding (affinity for dopamine D4 receptors). The following applies: 3H-YM-09151-2, cloned human D4.2 membranes; for IC50: * means that the test result is preliminary, read-out: D4-bind. IC50. As for the experimental part:
By this method the inhibition by drugs of the binding of the dopamine D4 antagonist ^3H-YM-09151-2 to dopamine D4 receptors in cloned human dopamine receptor subtype 4.2 membranes is determined in vitro. Accordingly, this is a test for affinity for dopamine D4 receptors. The test is performed using a preparation of cloned dopamine D4 cell membranes CRM-016®, Dupharma A/S, Denmark, in accordance with the product specifications.

As to `CC(=O)Nc1ccc2c(c1)CCC2CN1CC=C(c2c[nH]c3cc(Cl)ccc23)CC1` (centres unmarked) (as salt: fumarate) [Compound 6d, 6-Chloro-3-[1-(5-acetylamino-1-indanylmethyl)-1,2,3,6-tetrahydropyridin-4-yl]-1H-indole], the melting point fell in the range of 241 to 242 °C. On the same count and under the same terms, the same measure for `c1ccc2c(c1)CC(CN1CCN(c3ccc4[nH]ccc4c3)CC1)C2` (as salt: hydrochloride) [Compound 11f, 5-[4-(Indan-2-yl)methylpiperazin-1-yl]-1H-indole]: 263 to 265 °C; for `c1ccc2c(c1)CC(CCN1CCN(c3ccc4[nH]ccc4c3)CC1)C2` (as salt: hydrochloride) [Compound 25b, 5-[4-[2-(Indan-2-yl)ethyl]piperazin-1-yl]-1H-indole]: 251 to 253 °C; for `CC(C)Oc1cccc2c1CC(CN1CCC(c3c[nH]c4cc(Cl)ccc34)CC1)C2` (centres unmarked) (as salt: oxalate): 119 to 126 °C. Compound `CC(C)Oc1cccc2c1CC(CN1CCC(c3c[nH]c4ccc(F)cc34)CC1)C2` (centres unmarked) (as salt: oxalate) yielded a melting point of 181 to 189 °C. Still for that read-out and setting: the same measure for `CC(=O)Nc1ccc2c(c1)CC(CN1CC=C(c3c[nH]c4cc(Cl)ccc34)CC1)C2` (centres unmarked) (as salt: oxalate): 201 to 203 °C; for `Clc1ccc2c(C3CCN(CCCCC4CCc5ccccc54)CC3)c[nH]c2c1` (centres unmarked) (as salt: oxalate) [Compound 8f, 6-Chloro-3-[1-[4-(indan-1-yl)butan-1-yl)-piperidin-4-yl]-1H-indole]: 206 to 208 °C. The compound `Clc1ccc2c(C3=CCN(CCCCC4CCc5ccccc54)CC3)c[nH]c2c1` (centres unmarked) (as salt: oxalate) [Compound 8h] had a melting point of 191 to 192 °C. The same measure, in the same setting: the same measure for `Clc1cccc2c(C3=CCN(CC4Cc5ccccc5C4)CC3)c[nH]c12` (as salt: oxalate) [Compound 11c, 7-Chloro-3-[1-(indan-2-yl)methyl-1,2,3,6-tetrahydropyridin-4-yl]-1H-indole]: 135 to 136 °C; for `CC(=O)Nc1ccc2c(c1)C(CCN1CC=C(c3c[nH]c4cc(Cl)ccc34)CC1)CC2` (centres unmarked) (as salt: oxalate) [Compound 18c]: 153 to 155 °C.

`CC(=O)Nc1ccc2c(c1)C(CCCN1CC=C(c3c[nH]c4cc(Cl)ccc34)CC1)CC2` (centres unmarked) (as salt: oxalate) [Compound 18d, 6-Chloro-3-[1-[3-(6-acetylaminoindan-1-yl)propan-1-yl]-1,2,3,6-tetrahydropyridin-4-yl]-1H-indole] registered a melting point of 110 to 115 °C.

In the case of `CC(=O)Nc1ccc2c(c1)C(CCCCN1CC=C(c3c[nH]c4cc(Cl)ccc34)CC1)CC2` (centres unmarked) (as salt: oxalate) [Compound 18e, 6-Chloro-3-[1-[4-(6-acetylaminoindan-1-yl)butan-1-yl]-1,2,3,6-tetrahydropyridin-4-yl]-1H-indole], the melting point lay in the range of 125 to 128 °C. On the same count and under the same terms, the same measure for `CC(=O)N1CC(CCCN2CC=C(c3c[nH]c4cc(Cl)ccc34)CC2)c2ccccc21` (centres unmarked) (as salt: oxalate) [Compound 20k, 3-[1-[3-(1-Acetyl-2,3-dihydro-1H-indol-3-yl)propyl]-1,2,3,6-tetrahydropyridin-4-yl]-6-chloro-1H-indole]: 112 to 115 °C; for `Clc1cccc2c(C3CCN(CC4Cc5ccccc5C4)CC3)c[nH]c12` (as salt: oxalate) [Compound 21c, 7-Chloro-3-[1-(indan-2-ylmethyl)piperidin-4-yl]-1H-indole]: 218 to 219 °C. `C1=C(n2ccc3ccccc32)CCN(CCC2Cc3ccccc3C2)C1` (as salt: oxalate) [Compound 28b, 1-[1-[2-(Indan-2-yl)ethyl]-1,2,3,6-tetrahydropyridin-4-yl]-1H-indole]: the melting point fell in the range of 176 to 178 °C. `CC(=O)N1CC(CCN2CC=C(c3c[nH]c4cc(Cl)ccc34)CC2)c2ccccc21` (single isomer, unassigned; (-)) [Compound 34b] displayed a melting point of 168 to 169 °C. Moreover, the 50% inhibitory concentration (IC50) in data set [1] was determined as 24 nM. On the same counts, the results for `CC(=O)Nc1cccc2c1CCC2CN1CC=C(c2c[nH]c3cc(Cl)ccc23)CC1` (centres unmarked) [Compound 6c] are 189 to 190 °C and 12 nM. On to `Clc1ccc2c(C3=CCN(CCC4CCc5ccccc54)CC3)c[nH]c2c1` (centres unmarked) [Compound 8a, 6-Chloro-3-[1-[2-(indan-1-yl)ethyl]-1,2,3,6-tetrahydropyridine-4-yl]-1H-indole], for which the melting point lay in the range of 181 to 183 °C. Further, the IC50 in data set [1] stood at 3.5 nM. On the same counts, the results for `Fc1ccc2[nH]cc(C3=CCN(CCC4CCc5ccccc54)CC3)c2c1` (centres unmarked) [Compound 8b, 5-Fluoro-3-[1-[2-(indan-1-yl)ethyl]-1,2,3,6-tetrahydropyridin-4-yl]-1H-indole] are 172 to 176 °C and 2.8 nM. Regarding `Fc1ccc2[nH]cc(C3=CCN(CCCCC4CCc5ccccc54)CC3)c2c1` (centres unmarked) [Compound 8d, 5-Fluoro-3-[1-[4-(indan-1-yl)butan-1-yl]-1,2,3,6-tetrahydropyridin-4-yl]-1H-indole], the melting point fell in the range of 172 to 176 °C. Also, the IC50 in data set [1] was found to be 20 nM.

In turn, `C1=C(c2c[nH]c3ccccc23)CCN(CC2Cc3ccccc3C2)C1` [Compound 11b, 3-[1-(Indan-2-yl)methyl-1,2,3,6-tetrahydropyridin-4-yl]-1H-indole] had a melting point of 156 to 157 °C. In addition, the IC50 in data set [1] worked out at 3 nM. The matching figures for `Clc1ccc2c(C3=CCN(CC4Cc5ccccc5C4)CC3)c[nH]c2c1Cl` [Compound 11d, 6,7-Dichloro-3-[1-(indan-2-yl)methyl-1,2,3,6-tetrahydropyridin-4-yl]-1H-indole]: 151 to 152 °C and 27 nM. On the same counts, the results for `C1=C(c2c[nH]c3cc4c(cc23)OCO4)CCN(CC2Cc3ccccc3C2)C1` [Compound 11e, 3-[1-(Indan-2-yl)methyl-1,2,3,6-tetrahydropyridin-4-yl]-5,6-methylenedioxy-1H-indole] are 192 to 193 °C and 16 nM. On the same counts, the results for `Clc1ccc2c(C3=CCN(CCC4Cc5ccccc5C4)CC3)c[nH]c2c1` [Compound 11g, 6-Chloro-3-[1-[2-(indan-2-yl)ethyl]-1,2,3,6-tetrahydropyridin-4-yl]-1H-indole] are 217 to 218 °C and 12 nM. `Clc1ccc2c(C3=CCN(CCCC4Cc5ccccc5C4)CC3)c[nH]c2c1` [Compound 11h, 6-Chloro-3-[1-[3-(indan-2-yl)propan-1-yl]-1,2,3,6-tetrahydropyridin-4-yl]-1H-indole]: the melting point is 176 to 177 °C. Also, the IC50 in data set [1] amounted to 24 nM. The compound `Clc1ccc2c(C3=CCN(CCCCC4Cc5ccccc5C4)CC3)c[nH]c2c1` [Compound 11i, 6-Chloro-3-[1-[4-(indan-2-yl)butan-1-yl]-1,2,3,6-tetrahydropyridin-4-yl]-1H-indole] displayed a melting point of 211 to 214 °C. Also, the inhibition at 0.05 µM in data set [1] (at 50 nM, read-out: D4-bind. % inhibition of binding at 50 nM) is 37%. `c1ccc2c(c1)CC(CN1CCC(c3c[nH]c4ccccc34)CC1)C2` [Compound 21b, 3-[1-(indan-2-ylmethyl)piperidin-4-yl]-1H-indole] yielded a melting point of 146 to 147 °C. Further, in data set [1], the IC50 amounted to 2.1 nM. `Clc1ccc2c(C3CCN(CC4Cc5ccccc5C4)CC3)c[nH]c2c1Cl` [Compound 21d, 6,7-Dichloro-3-[1-(indan-2-ylmethyl)piperidin-4-yl]-1H-indole] registered a melting point of 141 to 142 °C. In addition, in data set [1], the IC50 came out at 3.9 nM. On the same counts, the results for `c1ccc2c(c1)CC(CN1CCC(c3c[nH]c4cc5c(cc34)OCO5)CC1)C2` [Compound 21e, 3-[1-(Indan-2-ylmethyl)piperidin-4-yl]-5,6-methylenedioxy-1H-indole] are 187 to 188 °C and 23 nM. `Clc1ccc2c(C3CCN(CCC4Cc5ccccc5C4)CC3)c[nH]c2c1` [Compound 21f, 6-Chloro-3-[1-[2-(indan-2-yl)ethyl]piperidin-4-yl]-1H-indole] returned a melting point of 155 to 156 °C. In data set [1], the IC50 stood at 3.2 nM. Consider `Clc1ccc2c(C3CCN(CCCC4Cc5ccccc5C4)CC3)c[nH]c2c1` [Compound 21g, 6Chloro-3-[1-[3-(indan-2-yl)propan-1-yl]piperidin-4-yl]-1H-indole], for which the melting point was in the range of 134 to 135 °C. Besides, the IC50 in data set [1] was 7.2 nM.

Compound `Clc1ccc2c(C3CCN(CCCCC4Cc5ccccc5C4)CC3)c[nH]c2c1` [Compound 21h, 6-Chloro-3-[1-[4-(indan-2-yl)butan-1-yl]piperidin-4-yl]-1H-indole] came in with a melting point of 139 to 140 °C. The IC50 in data set [1] amounted to 14 nM. On the same counts, the results for `C1=C(c2cc3ccccc3[nH]2)CCN(CCC2Cc3ccccc3C2)C1` [Compound 28c, 2-[1-[2-(Indan-2-yl)ethyl]-1,2,3,6-tetrahydropyridin-4-yl]-1H-indole] are 175 to 176 °C and 13 nM. `c1ccc2c(c1)CC(CCN1CCC(n3ccc4ccccc43)CC1)C2` [Compound 29b, 1-[1-[2-(Indan-2-yl)ethyl]piperidin-4-yl]-1H-indole] yielded a melting point of 80 to 81 °C. In data set [1], the IC50 was 2.2 nM.

Usually melting point stands for the temperature, or range, at which the solid turns liquid. As a reminder, the IC50 is the concentration needed to halve the response being measured. As usually defined, the inhibition is the change of the read-out against control, counted positive when it falls.
